Source: ChEMBL document CHEMBL2169821, “Design, synthesis, and evaluation of pH-dependent hydrolyzable emetine analogues as treatment for prostate cancer” (J Med Chem, 2012)
Active and inactive are the calls of the source. The calls are words filed in the database; no cut-off is given here.

Columns and labels:
[1] = tested on: PC-3; assay: Cytotoxicity against human PC3 cells measured on day 7 by MTT assay; format: functional, cell-based
[2] = Chemical stability of the compound in phosphate buffer up to 5 days at pH 7.4 by HPLC analysis; format: physicochemical; conditions: for Stability: buffer, pH 7.4, 120 h; for remaining at 120 h: phosphate buffer, pH 7.4, read-out: Stability
[3] = Prodrug activation in phosphate buffer assessed as emetine formation up to 48 hrs at pH 5.5 by HPLC analysis; conditions: pH 5.5, 48 h
[4] = tested on: LNCaP; assay: Cytotoxicity against human LNCAP cells measured on day 7 by MTT assay; format: functional, cell-based
[5] = tested on: PC-3; assay: Cytotoxicity against human PC3 cells measured on day 5 by MTT assay; format: functional, cell-based
[6] = Chemical stability of the compound in phosphate buffer up to 48 hrs at pH 6.5 by HPLC analysis; format: physicochemical; conditions: pH 6.5, 48 h
[7] = tested on: PC-3; assay: Cytotoxicity against human PC3 cells measured on day 3 by MTT assay; format: functional, cell-based
[8] = Chemical stability of the compound in phosphate buffer up to 48 hrs at pH 5.5 by HPLC analysis; format: physicochemical; conditions: pH 5.5, 48 h
[9] = tested on: Mus musculus; assay: Toxicity in Balb/c mouse assessed as change in body weight at 100 mg/kg, iv qd administered as bolus for 5 days measured within 48 hrs relative to control; format: organism-based; design: dose 100 mg/kg, route intravenous; conditions: in vivo
[10] = tested on: PC-3; assay: Ratio of compound IC50 to emetine IC50 for human PC3 cells measured on day 5 at pH <7 by MTT assay; format: functional
[11] = tested on: Mus musculus; assay: Toxicity in Balb/c mouse assessed as adverse effects at 100 mg/kg, iv qd administered as bolus for 5 days; format: organism-based; design: dose 100 mg/kg, route intravenous; conditions: in vivo, 120 h
[12] = tested on: Mus musculus; assay: Toxicity in Balb/c mouse assessed as adverse effects at 100 mg/kg, iv qd administered as bolus for 5 days measured up to 3 weeks; format: organism-based; design: dose 100 mg/kg, route intravenous; conditions: in vivo
[13] = tested on: PC-3; assay: Ratio of compound IC50 to emetine IC50 for human PC3 cells measured on day 5 at pH 7.4 by MTT assay; format: functional
[14] = tested on: Mus musculus; assay: Toxicity in Balb/c mouse assessed as weight loss at 33 mg/kg, iv qd administered as bolus for 5 days measured within 48 hrs relative to untreated control; format: organism-based; design: dose 33 mg/kg, route intravenous; conditions: in vivo
[15] = tested on: Mus musculus; assay: Toxicity in Balb/c mouse assessed as mortality at 33 mg/kg, iv qd administered as bolus for 5 days measured up to 5 days; format: organism-based; design: dose 33 mg/kg, route intravenous; conditions: in vivo, 120 h
[16] = tested on: Mus musculus; assay: Toxicity in Balb/c mouse assessed as lethargy at 33 mg/kg, iv qd administered as bolus for 5 days measured within 48 hrs; format: organism-based; design: dose 33 mg/kg, route intravenous; conditions: in vivo
[17] = tested on: Mus musculus; assay: Toxicity in Balb/c mouse assessed as weight loss at 33 mg/kg, iv qd administered as bolus for 5 days measured within 24 hrs (reference value: 1.7%); format: organism-based; design: dose 33 mg/kg, route intravenous; conditions: in vivo

| Structure (SMILES) | Drug metabolism [3] | IC50 ([1]; Homo sapiens, PC-3, 168 h) | IC50 ([4]; Homo sapiens, LNCaP, 168 h) | Activity [5] | Stability [6] | Stability [8] | also measured |
| --- | --- | --- | --- | --- | --- | --- | --- |
| CC[C@H]1CN2CCc3cc(OC)c(OC)cc3[C@@H]2C[C@@H]1C[C@@H]1c2cc(OC)c(OC)cc2CCN1C(=O)/C=C(/C)C(=O)O [listing 1 of 2 here] | Active |  |  |  |  |  | IC50 ([1]; pc-3): 0.378 µM; Stability [2]: 100%; IC50 ([4]; lncap): 0.368 µM |
| CC[C@H]1CN2CCc3cc(OC)c(OC)cc3[C@@H]2C[C@@H]1C[C@@H]1c2cc(OC)c(OC)cc2CCN1C(=O)/C=C\C(=O)O | Active |  |  |  |  |  | IC50 ([1]; pc-3): 5.04 µM; Stability [2]: 100%; IC50 ([4]; lncap): 6.78 µM |
| CC[C@H]1CN2CCc3cc(OC)c(OC)cc3[C@@H]2C[C@@H]1C[C@@H]1c2cc(OC)c(OC)cc2CCN1C(=O)/C=C\C(=O)[O-].[Na+] | Active | 7.71 µM | 8.9 µM |  |  |  | remaining at 120 h [2]: 100% |
| CC[C@H]1CN2CCc3cc(OC)c(OC)cc3[C@@H]2C[C@@H]1C[C@@H]1c2cc(OC)c(OC)cc2CCN1C(=O)/C=C(/C)C(=O)O [listing 2 of 2 here] |  |  |  | Active |  |  |  |
| CC[C@H]1CN2CCc3cc(OC)c(OC)cc3[C@@H]2C[C@@H]1C[C@@H]1c2cc(OC)c(OC)cc2CCN1C(=S)NCc1ccccc1 |  | 6.92 µM | 2.06 µM | Active | Stable | Stable | Activity [7]: Active |
| CC[C@H]1CN2CCc3cc(OC)c(OC)cc3[C@@H]2C[C@@H]1C[C@@H]1c2cc(OC)c(OC)cc2CCN1C(=O)OCc1ccccc1 |  | 6.07 µM | 3.24 µM | Active | Stable | Stable | Activity [7]: Active |
| CC[C@H]1CN2CCc3cc(OC)c(OC)cc3[C@@H]2C[C@@H]1C[C@@H]1c2cc(OC)c(OC)cc2CCN1S(=O)(=O)c1ccccc1 |  | > 10 µM | 2.26 µM |  | Stable | Stable |  |
| CC[C@H]1CN2CCc3cc(OC)c(OC)cc3[C@@H]2C[C@@H]1C[C@@H]1c2cc(OC)c(OC)cc2CCN1C(=O)/C=C(/C)C(=O)[O-].[Na+] | Active | 0.428 µM | 0.458 µM |  |  |  | Activity [9]: Non-toxic; Ratio IC50 [10]: 2.5; Activity [11]: Non-toxic; remaining at 120 h [2]: 100%; Activity [12]: Non-toxic; Ratio IC50 [13]: 16.8 |
| CC[C@H]1CN2CCc3cc(OC)c(OC)cc3[C@@H]2C[C@@H]1C[C@@H]1c2cc(OC)c(OC)cc2CCN1C(=S)[S-].[Na+] |  | 0.087 µM | 0.079 µM | Active |  |  | Activity [14]: 0.67%; Activity [9]: Non-toxic; Ratio IC50 [10]: 1.9; Activity [11]: Non-toxic; Activity [15]: Non-toxic; remaining at 120 h [2]: 100%; Activity [16]: Non-toxic; Activity [17]: 2%; Activity [12]: Non-toxic; Ratio IC50 [13]: 16.5 |
| CC[C@H]1CN2CCc3cc(OC)c(OC)cc3[C@@H]2C[C@@H]1C[C@@H]1c2cc(OC)c(OC)cc2CCN1C(=O)CCC(=O)O |  | 2.15 µM | 2.45 µM |  |  |  |  |
| CC[C@H]1CN2CCc3cc(OC)c(OC)cc3[C@@H]2C[C@@H]1C[C@@H]1c2cc(OC)c(OC)cc2CCN1C(=S)SCc1ccccc1 |  | 1.56 µM | 1.97 µM | Active | Stable | Stable | Activity [7]: Active |
